Experimental data reported in US20200109126A1 (priority 2017, published 2020).
Entries after “also recorded” stand apart in the source; their conditions may differ.

Tests used:
hERG ion channel = hERG ion channel (Homo sapiens, UniProt Q12809); assay: Inhibition of hERG channel; format: biochemical
C57BL/6J mice [1] = assay: Conditioned place preference; conditions: mouse, in vivo
Method: On day 1 (preconditioning day), mice were placed in the central chamber and allowed to explore freely for 30 minutes. Time spent in each compartment was used to estimate baseline chamber preferences and mice showing specific chamber bias more than 70% were not studied further. On days 2-9 (conditioning days) mice were injected with either vehicle or drug and paired with either the white mesh or the black rod chambers. All mice received vehicle on days 2, 4, 6, 8 and drug on days 3, 5, 7, 9. On day 10 (test day), mice were again placed in the central chamber as on day 1 and allowed to explore freely for 30 minutes. Time spent in each chamber was expressed as percentage preference.

320 non-olfactory GPCRs = assay: PRESTO-Tango GPCRome β-arrestin recruitment screen for off-target agonism; format: cell-based; conditions: 10 μM, hits re-tested in full dose-response
Description: Potential positive receptor hits were defined as those that increase the relative luminescence value by two fold. […] A number of false positive hits were discounted by this approach.

μOR [2] = molecular target: T1, μOR (Homo sapiens, UniProt P35372); assay: Calcium release (FLIPR); format: cell-based; set-up: expressed in transfected cells
Method: Calcium release was measured using a FLIPR^TETRA fluorescence imaging plate reader (Molecular Devices). Calcium release experiments were run in parallel to Gi/o Glosensor experiments with the same HEKT cells transfected with μOR, except cells for FLIPR were plated in poly-lysine coated 384-well black clear bottom cell culture plates. Cells were incubated at 37° C. with 5% CO2 overnight, and next day, media was decanted and replaced with Fluo-4 direct calcium dye (Life Technologies) made up in HBSS with 20 mM HEPES, pH 7.4. Dye was incubated for 1 hour at 37° C. Afterwards, cells were equilibrated to room temperature, and fluorescence in each well was read for the initial 10 seconds to establish a baseline. Afterwards, 10 μL of drug (3×) was added per well and the maximum-fold increase in fluorescence was determined as fold-over-baseline. Drug solutions used for the FLIPR assay were exactly the same as used for Gi/o Glosensor experiments. To activate endogenous Gq-coupled receptors as a positive control for calcium release, TFLLR-NH2 (10 μM, PAR-1 selective agonist) was used.

C57BL/6J mice [3] = assay: Accumulated fecal boli quantification (constipation); conditions: PZM21 20 mg/kg, morphine 10 mg/kg
κOR [4] = molecular target: T2, κOR (Homo sapiens, UniProt P41145); assay: Radioligand binding at κOR (PDSP); conditions: Ki (nM) κOR
T2 construct: NIMH Psychoactive Drug Screening Program (PDSP)

δOR [5] = molecular target: T3, δOR (Homo sapiens, UniProt P41143); assay: Radioligand binding at δOR (PDSP)
T3 construct: NIMH Psychoactive Drug Screening Program (PDSP)

δOR [6] = molecular target: T3, δOR; assay: Gi/o Glosensor assay at δOR; format: cell-based; conditions: ND = not detectable
C57BL/6J mice [7] = assay: Formalin injection assay; conditions: PZM21 40 mg/kg
Method: Analgesia to formalin injection was carried out as described previously^66. Mice were first habituated for 20 minutes to the testing environment which included a home cage without bedding, food, and water. […] This was followed by injection of 20 μL of 1% formalin in 0.9% saline under the skin of the dorsal surface of the right hindpaw. Animals were returned to their home cage and behavioral responses were recorded for one hour. Nociception was estimated by measuring the cumulative time spent by animals licking the formalin-injected paw. As opioids classically display two phases of analgesic action, nociceptive behavior was measured during both the early phase (0 to 5 minutes) and the late phase (20 to 30 minutes).

μOR [8] = molecular target: T1, μOR; assay: cell-based; format: cell-based
μOR [9] = molecular target: T1, μOR; assay: Receptor internalization (PathHunter GPCR internalization assay); format: cell-based; conditions: maximal concentration
C57BL/6J mice [10] = assay: Hot-plate analgesia
[11] = Pharmacokinetics of PZM21 (serum and brain); format: in vivo, mouse; conditions: 20 mg/kg subcutaneous
Method: Studies were performed by the Preclinical Therapeutics Core and the Drug Studies Unit at the University of California San Francisco.

κOR [12] = molecular target: T2, κOR; assay: Gi/o Glosensor assay at κOR; format: cell-based
C57BL/6J mice [13] = assay: Open field locomotor response; conditions: PZM21 20 mg/kg, morphine 10 mg/kg
C57BL/6J mice [14] = assay: Cataleptic effect (bar test); conditions: PZM21 20 mg/kg
Method: Drug induced catalepsy was measured in mice using the bar test, which includes a horizontally placed 3 mm diameter wooden bar fixed 4 cm above the floor. […] To measure catalepsy, both forepaws were gently placed on the bar and the length of time during which each mouse remained in the initial position was measured. The effect was measured at 15, 30 and 90 minutes after drug injection. Maximum cut-off time for each challenge was 90 seconds.

μOR [15] = molecular target: T1, μOR; assay: β-arrestin recruitment at μOR with GRK2 co-expression; format: cell-based
nociceptin receptor = molecular target: T4, nociceptin receptor (Homo sapiens, UniProt P41146); assay: Gi/o Glosensor assay at nociceptin receptor; format: cell-based
T4 construct: NIMH Psychoactive Drug Screening Program (PDSP)

[16] = tested on: Oprm1−/− and wild-type C57Bl/6J mice; assay: Hot plate in μOR knockout mice and subcategorization of affective/reflexive pain; format: in vivo, mouse
Method: Analgesia in μOR knockout mice and subcategorization of affective/reflexive pain: Oprm1−/− and wild-type C57Bl/6J mice (male; 8-11 weeks) were acclimated to the testing environment and thermal-plate equipment for three non-consecutive days between 11 A.M. and 1 P.M. prior to any pharmacological studies. Acclimation was achieved by individually confining mice within an enclosed semi-transparent red plastic cylinder (10 cm D×15 cm H) on a raised metal-mesh rack (61 cm H) for 30 minutes, and then exposing each mouse to the thermal-plate equipment (non-heated; floor dimensions, 16.5×16.5 cm; Bioseb), while confined within a clear plastic chamber (16 L×16 W×30H cm). Acclimation exposure to the thermal plate lasted for 30 seconds, and exposure was repeated after 30 minutes to mimic the test day conditions. […] The same experimenter ([…] ) was present throughout the entire duration of habituation and testing to exclude possible olfaction-induced alterations in sensory thresholds.
Cutaneous application of a noxious stimulus, or time spent on a hot plate apparatus can broadly elicit several distinct behavioral responses: 1. Withdrawal reflexes: rapid reflexive retraction or digit splaying of the paw, 2. […] Paw withdrawal reflexes are classically measured in studies of hypersensitivity, and involve simple spinal cord and brainstem circuits. […]

T1 sequence (P35372 whole entry): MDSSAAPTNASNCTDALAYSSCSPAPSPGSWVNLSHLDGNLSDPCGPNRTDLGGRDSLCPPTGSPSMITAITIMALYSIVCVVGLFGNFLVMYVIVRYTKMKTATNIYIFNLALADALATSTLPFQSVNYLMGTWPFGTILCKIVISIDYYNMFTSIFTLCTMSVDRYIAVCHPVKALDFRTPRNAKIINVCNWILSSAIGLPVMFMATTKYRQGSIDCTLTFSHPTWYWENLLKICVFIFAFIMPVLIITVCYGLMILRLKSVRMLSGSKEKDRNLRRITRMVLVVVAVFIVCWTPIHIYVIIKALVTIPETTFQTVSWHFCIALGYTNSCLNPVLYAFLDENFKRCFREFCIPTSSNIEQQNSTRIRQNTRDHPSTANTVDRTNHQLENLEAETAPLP
T2 sequence (P41145 whole entry): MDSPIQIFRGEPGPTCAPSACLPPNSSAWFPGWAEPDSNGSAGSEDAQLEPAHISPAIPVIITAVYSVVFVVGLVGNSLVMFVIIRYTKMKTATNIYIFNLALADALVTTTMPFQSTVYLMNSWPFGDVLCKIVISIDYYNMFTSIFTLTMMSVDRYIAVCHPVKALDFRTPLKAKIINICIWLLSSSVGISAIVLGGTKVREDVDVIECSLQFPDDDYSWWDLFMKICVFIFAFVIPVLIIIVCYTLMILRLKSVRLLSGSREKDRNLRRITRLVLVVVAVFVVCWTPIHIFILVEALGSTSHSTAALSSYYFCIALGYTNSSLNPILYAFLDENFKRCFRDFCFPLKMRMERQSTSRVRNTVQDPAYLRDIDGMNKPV
T3 sequence (P41143 whole entry): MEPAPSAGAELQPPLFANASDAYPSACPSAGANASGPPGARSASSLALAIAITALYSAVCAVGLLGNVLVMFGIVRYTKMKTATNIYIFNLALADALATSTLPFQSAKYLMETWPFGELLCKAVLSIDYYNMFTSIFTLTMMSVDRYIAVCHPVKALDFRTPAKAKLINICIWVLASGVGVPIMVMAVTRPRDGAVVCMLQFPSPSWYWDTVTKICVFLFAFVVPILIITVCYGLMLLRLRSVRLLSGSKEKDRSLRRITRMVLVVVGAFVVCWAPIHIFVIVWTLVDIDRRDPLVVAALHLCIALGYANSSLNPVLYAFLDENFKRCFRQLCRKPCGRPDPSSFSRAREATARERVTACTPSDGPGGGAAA
T4 sequence (P41146 whole entry): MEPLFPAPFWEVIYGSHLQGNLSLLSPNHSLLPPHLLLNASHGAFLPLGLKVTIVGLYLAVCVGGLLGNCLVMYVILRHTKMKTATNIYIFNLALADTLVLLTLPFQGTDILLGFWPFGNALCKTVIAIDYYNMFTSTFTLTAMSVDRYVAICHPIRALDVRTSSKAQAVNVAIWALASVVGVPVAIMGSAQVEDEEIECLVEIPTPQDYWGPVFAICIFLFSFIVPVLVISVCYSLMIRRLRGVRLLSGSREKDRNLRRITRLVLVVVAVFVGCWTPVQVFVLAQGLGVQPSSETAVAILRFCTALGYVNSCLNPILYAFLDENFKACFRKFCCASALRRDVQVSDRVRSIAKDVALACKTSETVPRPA
hERG ion channel, sequence (Q12809 whole entry): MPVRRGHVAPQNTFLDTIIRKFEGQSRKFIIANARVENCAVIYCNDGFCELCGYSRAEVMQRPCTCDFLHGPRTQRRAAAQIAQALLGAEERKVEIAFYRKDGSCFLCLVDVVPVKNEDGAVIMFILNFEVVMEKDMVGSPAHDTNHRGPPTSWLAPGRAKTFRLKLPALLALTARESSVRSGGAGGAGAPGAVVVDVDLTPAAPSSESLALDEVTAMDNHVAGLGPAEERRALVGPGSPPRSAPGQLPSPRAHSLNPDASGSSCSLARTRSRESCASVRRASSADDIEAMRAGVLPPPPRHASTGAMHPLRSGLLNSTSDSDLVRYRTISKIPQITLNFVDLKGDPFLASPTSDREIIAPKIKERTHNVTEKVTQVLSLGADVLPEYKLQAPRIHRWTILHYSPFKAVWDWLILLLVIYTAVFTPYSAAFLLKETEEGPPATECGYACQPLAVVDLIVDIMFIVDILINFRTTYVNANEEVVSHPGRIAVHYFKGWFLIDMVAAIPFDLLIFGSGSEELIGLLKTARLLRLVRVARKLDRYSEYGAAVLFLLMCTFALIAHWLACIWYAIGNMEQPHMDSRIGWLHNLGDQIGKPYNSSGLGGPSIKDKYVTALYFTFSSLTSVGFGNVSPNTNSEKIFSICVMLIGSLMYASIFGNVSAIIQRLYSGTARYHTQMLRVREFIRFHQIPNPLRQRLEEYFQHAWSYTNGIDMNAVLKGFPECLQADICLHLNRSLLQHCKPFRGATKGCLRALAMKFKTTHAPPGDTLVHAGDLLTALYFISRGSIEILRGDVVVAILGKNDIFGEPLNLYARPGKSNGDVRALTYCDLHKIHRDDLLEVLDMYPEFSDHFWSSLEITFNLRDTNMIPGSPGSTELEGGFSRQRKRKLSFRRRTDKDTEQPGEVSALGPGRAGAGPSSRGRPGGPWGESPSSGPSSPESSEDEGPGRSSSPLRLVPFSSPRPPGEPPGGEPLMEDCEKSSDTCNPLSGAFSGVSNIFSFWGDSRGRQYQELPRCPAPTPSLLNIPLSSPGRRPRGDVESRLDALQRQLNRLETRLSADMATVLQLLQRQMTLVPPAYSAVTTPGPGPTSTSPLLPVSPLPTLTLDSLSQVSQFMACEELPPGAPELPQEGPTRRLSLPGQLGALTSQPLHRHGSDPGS

In the case of `C[C@@H](Cc1ccsc1)NC(=O)NC[C@H](Cc1ccc(O)cc1)N(C)C` [PZM21, 1-[(S)-2-(Dimethylamino)-3-(4-hydroxyphenyl)propyl]-3-((S)-1-(thiophen-3-yl)propan-2-yl)urea], the IC50 (hERG ion channel) is reported as 2000 to 4000 nM, the conditioned place preference (C57BL/6J mice [1]) is reported as “does not induce a conditioned place preference response” and the “agonism against 316 other GPCRs” value (320 non-olfactory GPCRs) is reported as “no potent activity was confirmed”. The calcium release (μOR [2]) was “no activity was observed”, the constipation effect (C57BL/6J mice [3]) was “reduced constipatory effects as compared to morphine; also recorded: substantially less than morphine” and the Ki (κOR [4]) was 18 nM. The Ki (δOR [5]) was 506 nM, the EC50 (δOR [6]) was 1900 nM and the “activity in formalin injection nociception assay” value (C57BL/6J mice [7]) was “active”. For the same molecule, the “Gi/o activation, μOR agonist activity (in words)” value (μOR [8]) was “robust μOR agonist activity”, the μOR internalization (μOR [9]) was “minimal level of μOR internalization compared to DAMGO and morphine” and the duration of analgesia (C57BL/6J mice [10]; hot plate) was “up to 180 minutes”. The “percent maximal possible effect (% MPE)” value (C57BL/6J mice [10]; hot plate, highest dose of drug tested, 15 minutes after administration) was 87%, the “analgesia in hot-plate assay (in words)” value (C57BL/6J mice [10]; mouse, subcutaneous) was “dose-dependent analgesia” and the “blood brain barrier penetration” value [11] was “substantial fraction of PZM21 crosses the blood brain barrier”. The “KOR agonist activity (in words)” value (κOR [12]) was “no detectable”, the “mode of action at KOR” value (κOR [12]; antagonist mode) was “antagonist” and the open field locomotion (C57BL/6J mice [13]) was “does not induce open field locomotion; also recorded: no apparent effect on locomotion versus vehicle”. The cataleptic behavior (C57BL/6J mice [14]) was “does not induce cataleptic behavior”, the “arrestin recruitment with over-expressed GRK2 (in words)” value (μOR [15]) was “weak arrestin recruitment efficacy compared to DAMGO and even to morphine” and the signaling bias (μOR [15]; operational model, DAMGO as reference) was “undistinguishable from TRV130”. For the same molecule, the “nociceptin receptor agonist activity (in words)” value (nociceptin receptor) was “no detectable”, the “affective versus reflexive component of pain” value ([16]; hot plate 52.5° C., PZM21 20 mg/kg, 20 mg/kg) was “only modulates the affective component of pain; also recorded: solely confers analgesia to the affective component of pain” and the “analgesic response in μOR knockout mice” value ([16]; hot-plate assay) was “completely ablates the observed analgesic response”.
